Here are results for ten molecules from patent US4465772A, “Method for disinfecting and washing of immobilized lactase” (priority 1980, dated 1984).

Where two headings read alike, the source gives them in different places.

For test [1], the system named is Mixture of five strains separated from the putrefied milk. Put plainly: Disinfecting power (number of viable cells). The conditions noted are these: initial 10^5-10^6/ml. The test is classed as cell-based. On the procedure: (1) Disinfecting power (number of viable cells)
Milk obtained commercially was putrefied. Mixture of five strains separated from the putrefied milk was suspended in a 0.2 % bouillon solution (pH: 7.0) so that the number of viable cells attains to 10^5 -10^6 /ml. To this suspension was added an equal amount of an undiluted solution having a concentration of each chemical twice as high as that to be applied. A cotton plug was corked to each container and sampling was carried out after 1 hour and 7 days. The sample was diluted at need and plating on the standard agaragar culture medium was effected to count the number of colonies.
The symbols related to the number of viable cells designate as follows: […]

Test [2] addresses T1, immobilized lactase (lactase derived from Aspergillus oryzae) (Aspergillus oryzae, UniProt Q2UCU3).
T1 construct: host or cells: Aspergillus oryzae
The test is described as follows: Residual enzyme activity of immobilized lactase after immersion in disinfectant solutions. The test is classed as biochemical. The conditions noted are these: for remaining activity at 0.01 %: chemical 0.01%; for remaining activity at 0.01 % / remaining activity at 1 % / remaining activity at 70 % / Residual enzyme activity (relative ratio, %) after immersion for 7 days / Residual enzyme activity (relative ratio, %) after immersion for 30 days / remaining activity at 0.1 %: 18°-20° C.; for remaining activity at 70 %: chemical 70%; for remaining activity at 0.1 %: chemical 0.1%. From the text: As the immobilized lactase was used one prepared by using a macroporous phenol-formaldehyde type amphoteric ion-exchange resin (particle size: 250-840μ) as the carrier, making the same adsorb the lactase derived from Aspergillus oryzae and carrying out the glutaraldehyde treatment to cause immobilization by covalent linkage [EPC publication No. 26672 (published on Apr. 8, 1981)].
(2) Residual enzyme activity
[…] […] The sample was sufficiently washed with an excessively large amount of water and a 0.05 M acetate buffer solution at pH 4.5 and then the residual activity was measured.
In 30 ml of lactose solution having a concentration of 13.3 (W/V) % prepared by dissolving lactose in a 0.05 M acetate buffer solution of pH 4.5 was immersed 0.2-0.25 ml of an immobilized lactase. The reaction was allowed to proceed at 30° C. under reciprocating shaking (more than 100 rpm with an amplitude larger than 3.5 cm) for 15 minutes. Then the amount of glucose produced was determined with a glucose oxidase-peroxidase-dye system. The amount of enzyme which produces 1μ mol of glucose per minute is defined as one unit (1 ILU). The dry weight of an immobilized lactase is determined as mentioned below. That is, after the termination of the reaction, the immobilized lactase was filtered, dried at 50° C. under reduced pressure for 8 hours or more, placed in a desiccator at room temperature (18°-25° C.) for 1.5 hours or more, the weight thereof was then measured and this value is regarded as the dry weight of the immobilized lactase. The activity of an immobilized lactase is represented by the unit per gram of dry weight (1 ILU/g-IML).

[3] abbreviates: concentration of chemical 0.01%.
[4] abbreviates: 168 h, relative to 860 ILU/g-IML, read-out: Residual enzyme activity (relative ratio, %) after immersion for 7 days.
[5] abbreviates: 720 h, relative to 860 ILU/g-IML, read-out: Residual enzyme activity (relative ratio, %) after immersion for 30 days.
Where [6] appears, read: 168 h, chemical 1%, relative to 860 ILU/g-IML before immersion, read-out: Residual enzyme activity (relative ratio, %) after immersion for 7 days.
Setting [7] is: 720 h, chemical 1%, relative to 860 ILU/g-IML before immersion, read-out: Residual enzyme activity (relative ratio, %) after immersion for 30 days.
[8] abbreviates: chemical 10%, relative to 860 ILU/g-IML.
Setting [9] is: chemical 1%, relative to 860 ILU/g-IML before immersion.

T1 sequence (Q2UCU3 19-1005): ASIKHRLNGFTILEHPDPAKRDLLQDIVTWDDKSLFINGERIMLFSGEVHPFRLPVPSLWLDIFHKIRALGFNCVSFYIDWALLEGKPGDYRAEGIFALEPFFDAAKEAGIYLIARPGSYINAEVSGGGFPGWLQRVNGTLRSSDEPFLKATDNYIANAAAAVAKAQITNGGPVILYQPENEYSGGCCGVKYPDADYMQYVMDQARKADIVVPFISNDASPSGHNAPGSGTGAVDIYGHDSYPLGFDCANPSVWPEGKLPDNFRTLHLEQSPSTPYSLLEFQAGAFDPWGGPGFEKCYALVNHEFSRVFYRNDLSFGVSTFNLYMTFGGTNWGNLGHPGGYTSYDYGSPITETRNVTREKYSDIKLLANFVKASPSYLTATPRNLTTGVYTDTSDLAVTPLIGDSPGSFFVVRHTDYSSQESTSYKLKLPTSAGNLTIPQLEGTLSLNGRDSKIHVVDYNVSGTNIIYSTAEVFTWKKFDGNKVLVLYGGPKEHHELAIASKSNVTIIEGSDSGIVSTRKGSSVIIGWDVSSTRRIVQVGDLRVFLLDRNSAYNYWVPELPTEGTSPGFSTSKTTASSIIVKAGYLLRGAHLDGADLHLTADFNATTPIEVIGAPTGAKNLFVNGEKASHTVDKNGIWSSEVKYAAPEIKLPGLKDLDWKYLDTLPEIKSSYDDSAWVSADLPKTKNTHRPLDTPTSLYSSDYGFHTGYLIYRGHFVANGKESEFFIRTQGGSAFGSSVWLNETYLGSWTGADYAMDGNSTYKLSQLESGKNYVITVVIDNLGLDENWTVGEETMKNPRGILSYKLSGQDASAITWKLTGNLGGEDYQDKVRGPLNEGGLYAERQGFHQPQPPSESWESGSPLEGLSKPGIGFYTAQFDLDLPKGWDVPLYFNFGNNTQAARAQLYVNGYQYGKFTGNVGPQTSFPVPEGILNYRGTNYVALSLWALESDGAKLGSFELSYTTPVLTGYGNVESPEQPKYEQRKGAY

Turning to `OCl` [Sodium hypochlorite], in test [1] (setting [3]), the “Number of viable cells after 1 hr.” value was “⊖” and the “Number of viable cells after 7 days” value was “⊖”. Also, in test [2] (0.01% solution, immersed for a long period at 18°-20° C.), the “decrease of activity of immobilized lactase on immersion” value (from here on “decrease”) was “decrease of activity to some extent”. Also, in test [2] (setting [4]), the remaining activity at 0.01 % came to 96%. Further, the remaining activity at 0.01 % in test [2] (setting [5]) is 92%.

As for `CC(=O)O` [Acetic acid], in test [1] (concentration of chemical 1%), the “Number of viable cells after 1 hr.” value is “⊖”. Further, in test [1] (concentration of chemical 1%), the “Number of viable cells after 7 days” value is “⊖”. The figures for the remaining activity at 1 % in test [2] (setting [6]) and in test [2] (setting [7]) were 102% and 100%, respectively.

For the molecule `CC(O)C(=O)O` (stereo not shown) [Lactic acid], in test [1] (concentration of chemical 1%), the “Number of viable cells after 1 hr.” value was “⊖ to ⊕” and the “Number of viable cells after 7 days” value is listed as “⊖”. The “decrease” value in test [2] (1% solution, five months at room temperature (18°-25° C.)) is given as “completely no decrease of activity”. Also, the remaining activity at 1 % in test [2] (setting [6]) was 103%. The remaining activity at 1 % in test [2] (setting [7]) worked out at 101%.

`CCO` [Ethyl alcohol]: in test [1] (concentration of chemical 70%), the “Number of viable cells after 1 hr.” value is reported as “⊖” and the “Number of viable cells after 7 days” value is “⊖”. Moreover, in test [2] (70% solution, immersed for a long period at 18°-20° C.), the “decrease” value was “decrease of activity to some extent”. Also, the remaining activity at 70 % in test [2] (setting [4]) stood at 84%. Besides, the remaining activity at 70 % in test [2] (setting [5]) came out at 67%.

`C/C=C/C=C/C(=O)[O-].[K+]` [Potassium sorbate]: in test [1] (concentration of chemical 1%), the “Number of viable cells after 1 hr.” value is given as “⊖” and the “Number of viable cells after 7 days” value was “⊖”. Further, in test [2] (setting [6]), the remaining activity at 1 % is 103%. The remaining activity at 1 % in test [2] (setting [7]) amounted to 101%.

Take `O=CCCCC=O` [Glutaraldehyde]: in test [1] (concentration of chemical 1%), the “Number of viable cells after 1 hr.” value is on record as “⊖” and the “Number of viable cells after 7 days” value is given as “⊖”. For the same molecule, in test [2] (setting [6]), the remaining activity at 1 % is 102%. The remaining activity at 1 % in test [2] (setting [7]) amounted to 98%.

Regarding `[Cl-].[Na+]` [Sodium chloride], in test [1] (concentration of chemical 10%), the “Number of viable cells after 1 hr.” value is listed as “⊖ to ⊕” and the “Number of viable cells after 7 days” value is given as “⊖”. In test [2] (setting [8]), the “Residual enzyme activity (relative ratio, %) after immersion for 7 days” value came out at 100% and the “Residual enzyme activity (relative ratio, %) after immersion for 30 days” value is 98%.

`CC(=O)C1C(=O)C=C(C)OC1=O` (stereo not shown) [Dehydroacetic acid]: in test [1] (concentration of chemical 0.1%), the “Number of viable cells after 1 hr.” value is recorded as “⊖” and the “Number of viable cells after 7 days” value is “⊖”. Besides, the remaining activity at 0.1 % in test [2] (setting [4]) came to 98%. Moreover, the remaining activity at 0.1 % in test [2] (setting [5]) is 102%.

Take `O=C(O)CC(O)C(=O)O` (stereo not shown) [Malic acid]: the “Number of viable cells after 1 hr.” value in test [1] (concentration of chemical 1%) was “⊖”. For the same molecule, the “Number of viable cells after 7 days” value in test [1] (concentration of chemical 1%) is given as “⊖”. The remaining activity at 1 % was 101% in test [2] (setting [6]) and 100% in test [2] (setting [7]).

In the case of `OO` [35% H2 O2 solution, hydrogen peroxide], in test [1] (concentration of chemical 1%), the “Number of viable cells after 1 hr.” value is “⊖” and the “Number of viable cells after 7 days” value is on record as “⊖”. Besides, in test [2] (setting [9]), the “Residual enzyme activity (relative ratio, %) after immersion for 7 days” value is listed as 100% and the “Residual enzyme activity (relative ratio, %) after immersion for 30 days” value was 98%.
